We go through two molecules from patent publication US5428175A (priority 1993, dated 1995).

Converted amounts (≈) assume the structure as drawn. A value given as a limit tells only on which side of the number the result lay.

Data set [1] deals with Bacillus subtilis rec +. Briefly: Antimicrobial activity, paper disc inhibition zone. The class given is cell-based. Particulars: 40 μg/disc, 8 mm paper disc; Bacillus subtilis rec + (wild strain). Here is the method: (§1) Antimicrobial activity of HS-1 was examined using eleven kinds of bacteria, fungi, and yeasts using paper discs with a diameter of 8 mm, at a concentration of 40 μg/disc. The results are shown in Table 3, wherein the antimicrobial activity of HS-1 is indicated as the diameter of the inhibition zone.

Data set [2] deals with Mycobacterium phlei IFO 11158. Briefly: Antimicrobial activity, paper disc inhibition zone. The class given is cell-based. To be noted: Mycolicibacterium phlei, IFO11158, 40 μg/disc, 8 mm paper disc. The protocol:
as §1

The subject of data set [3] is Botrytis cinerea IFO 5365. Briefly: Antimicrobial activity, paper disc inhibition zone. The class given is cell-based. Particulars: IFO5365, 40 μg/disc, 8 mm paper disc. Here is the method: as §1
In data set [4] the test system is Bacillus subtilis rec -. Briefly: Antimicrobial activity, paper disc inhibition zone. To be noted: 40 μg/disc, 8 mm paper disc; Bacillus subtilis rec - (repair activity defective strain). The class given is cell-based. Here is the method:
as §1

Data set [5] has as its system Pseudomonas aeruginosa N-10 (L-form). Briefly: Antimicrobial activity, paper disc inhibition zone. It is filed as cell-based. Particulars: 40 μg/disc, 8 mm paper disc. The protocol: as §1
Data set [6] relates to Escherichia coli AB 1157. The data set can be described thus: Antimicrobial activity, paper disc inhibition zone. To be noted: AB1157, 40 μg/disc, 8 mm paper disc. The class given is cell-based. The protocol: as §1
Data set [7] deals with Schizosaccharomyces pombe IFO 0638. Briefly: Antimicrobial activity, paper disc inhibition zone. It is filed as cell-based. Particulars: IFO0638, 40 μg/disc, 8 mm paper disc. The protocol:
as §1

For data set [8], the system named is Escherichia coli BE 1196. The data set can be described thus: Antimicrobial activity, paper disc inhibition zone. The class given is cell-based. Particulars: BE1196, 40 μg/disc, 8 mm paper disc. The protocol:
as §1

For data set [9], the system named is Xanthomonas citri IFO 3781. The data set can be described thus: Antimicrobial activity, paper disc inhibition zone. The class given is cell-based. To be noted: IFO3781, 40 μg/disc, 8 mm paper disc. Here is the method: as §1
In data set [10] the test system is Staphylococcus aureus IFO 12732. The data set can be described thus: Antimicrobial activity, paper disc inhibition zone. Particulars: IFO12732, 40 μg/disc, 8 mm paper disc. It is filed as cell-based. The protocol:
as §1

The test system of data set [11] is Human epidermoid carcinoma (oral) cell KB. The data set can be described thus: Cytocidal activity of HS-1 for KB cells (MTT). To be noted: 72 hours, absorption at 540 nm, read-out: TC50 (the source's name). The class given is cell-based. The protocol:
Human epidermoid carcinoma (oral) cell KB was inoculated into 96-well microplates (4000 cells/200 μl/well) and cultured in DMEM medium (containing 5% FCS) in 5% CO2 at 37° C. for 24 hours. 5 μl of HS-1 solutions in DMSO at various HS-1 concentrations were added to above culture. After the culture incubated for 72 hours, 10 μl of a 2.5 mg/ml MTT solution was added and incubator was continued for a further 4 hours, thus producing formazan. After the addition of 200 μl of DMSO, the absorption at 540 nm was measured using an imunoreader. The cytocidal activity of HS-1 for KB cells was determined from the ratio of the absorption of the compound to the absorption of the control.

In data set [12] the test system is Xanthomonas oryzae IFO 331.2. Briefly: microbe, parasite or virus in culture. It is filed as cell-based. To be noted: IFO331, read-out: Inhibition zone.
A short description of data set [13]: Solubility. It is filed as physicochemical.
The conditions of data set [14]: known from the literature; cited from earlier work.

With `O=C1N=C(c2c[nH]c3ccccc23)C=C1c1c[nH]c2ccccc12` [HS-1], the zone of inhibition at 40 µg/disc in data set [1] is 0 mm; in data set [2], 0 mm; in data set [3], 0 mm; in [4] it was < 10 mm; in [5] it was < 10 mm; in [6] it was 0 mm. For the same molecule, the zone of inhibition at 40 µg/disc in data set [7] worked out at 0 mm; in data set [8], 0 mm; in data set [9], 0 mm; in data set [10], 0 mm; in data set [12], 11.9 mm. Further, the IC50 in [11] was found to be 0.68 µg/mL (≈ 2.18 µM). Further, the Solubility entry is “Readily soluble” in data set [13] (in dimethyl sulfoxide), “scarcely soluble” in data set [13] (in methanol) and “insoluble” in [13] (in water).

With `O=C1NC(c2c[nH]c3ccc(O)cc23)=C/C1=C1\C(=O)Nc2ccccc21` [violacein], the “antimicrobial and antiprotozoal activities” value in data set [14] is “known to exhibit antimicrobial and antiprotozoal activities”.
